Data on one compound can be found in US10941137B2, “Difluoromethyl-phenyl triazoles” (Boehringer Ingelheim International GmbH, priority 2018, dated 2021).

Series [1] addresses T1, human GABAA α5β3γ2s receptor (Homo sapiens, UniProt P18507+P31644).
T1 sequence (P18507 1-475): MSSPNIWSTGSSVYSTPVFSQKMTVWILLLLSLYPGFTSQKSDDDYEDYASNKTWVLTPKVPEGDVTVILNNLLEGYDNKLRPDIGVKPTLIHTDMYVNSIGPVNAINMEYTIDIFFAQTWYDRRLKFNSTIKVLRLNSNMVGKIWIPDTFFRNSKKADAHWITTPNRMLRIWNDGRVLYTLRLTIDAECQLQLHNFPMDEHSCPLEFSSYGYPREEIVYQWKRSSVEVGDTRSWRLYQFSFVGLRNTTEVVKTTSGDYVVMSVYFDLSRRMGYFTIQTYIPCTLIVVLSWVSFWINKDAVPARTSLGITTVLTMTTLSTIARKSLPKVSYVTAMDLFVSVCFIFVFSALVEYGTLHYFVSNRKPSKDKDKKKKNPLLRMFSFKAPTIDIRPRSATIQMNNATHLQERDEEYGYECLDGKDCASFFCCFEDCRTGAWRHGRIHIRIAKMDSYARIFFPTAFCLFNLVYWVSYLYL
T1 sequence (P31644 1-462): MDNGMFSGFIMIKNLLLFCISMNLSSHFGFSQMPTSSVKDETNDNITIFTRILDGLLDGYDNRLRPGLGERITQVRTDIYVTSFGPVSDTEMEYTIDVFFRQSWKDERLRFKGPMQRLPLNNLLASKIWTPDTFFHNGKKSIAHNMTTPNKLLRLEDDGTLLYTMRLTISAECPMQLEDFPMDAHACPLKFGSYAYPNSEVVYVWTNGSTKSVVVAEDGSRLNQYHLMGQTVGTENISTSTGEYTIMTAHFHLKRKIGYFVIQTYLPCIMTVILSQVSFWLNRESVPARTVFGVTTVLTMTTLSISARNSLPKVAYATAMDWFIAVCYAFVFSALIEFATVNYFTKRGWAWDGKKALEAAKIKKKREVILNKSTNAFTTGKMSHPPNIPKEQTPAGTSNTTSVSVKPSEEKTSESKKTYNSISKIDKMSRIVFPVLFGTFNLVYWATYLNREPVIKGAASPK
Briefly: Assay A: in vitro inhibition of 3H-flumazenil binding, HEK cells expressing human GABAA α5β3γ2s receptor. To be noted: 3H-flumazenil 1 nM, HEK-293 membranes, 40 min at 2° C.; Ki from IC50 by Cheng and Prusoff. As to the method:
HEK-293 cell lines with stable expression of recombinant human GABAA α5β3γ2s receptors (plasmid H46/E9/B10) are seeded in T175 polystyrene flasks or roller bottles (1700 cm^2, Fisher Scientific CCI-431191), and cultured (37 C, 5% CO˜) in Dulbecco's Modified Eagle Medium (DMEM) with GlutaMAX™ supplemented with 10% fetal bovine serum and one or both of the following antibiotics: hygromycin B ([…]; γ2 subunit) or G418 (0.5 mg/ml; […]).
When the cultures reach confluency, the DMEM is removed and the cells are washed (10 ml for T175 flasks; 50 ml for roller bottles) once in Dulbecco's Phosphate Buffered Saline (DPBS). Following addition of DPBS to the cultures (10 ml for T175 flasks; 100 ml for roller bottles) for approximately 5 min cells are easily detached from the surface by shaking or tapping the flask gently. The cell suspension is transferred to Falcon tubes and centrifuged at 23,500×g for 10 min at 2° C. The pellet is washed once in 15 ml Tris-citrate buffer (50 mM, pH 7.1) using an Ultra-Turrax homogenizer and centrifuged at 2° C. for 10 min at 27,000×g. The washed pellet is re-suspended in 15 ml Tris-citrate buffer and frozen at −80° C. until the day of the binding experiment.
On the day of the experiment the cell membrane preparation is thawed and centrifuged at 2° C. for 10 min at 27,000×g. The pellet is re-suspended, using an Ultra-Turrax homogenizer in Tris-citrate buffer, to 15-50 µg protein per assay and then used for binding assays.
Non-specific binding is determined using clonazepam (1 μM, final concentration).
All dilutions of test compounds and incubation of assay are performed in glass vials/96-vial plates. […] Compounds are dissolved in 100% DMSO (10 mM stock), diluted in 48% ethanol-water, and tested in triplicate in serial 1:3 or 1:10 dilutions. When screening large numbers of compounds only one concentration of each compound is tested in single wells. Reference compounds are not included routinely, but for each experiment performed total and nonspecific binding is compared to data obtained during validation of the assay.
Binding is either terminated by rapid filtration onto
1) Whatman GF/C glass fibre filters using a Brandel Cell harvester, followed by 5 washes with 1 ml ice-cold buffer or onto 2) UniFilter GF/C glass fibre filter plates using a Tomtec cell harvester, followed by washing with approximately 5 ml ice-cold buffer.
The amount of radioactivity on the filters is determined by conventional liquid scintillation counting using a
1) Tri-Garb™ counter (PerkinElmer Life and Analytical Sciences) for separate large filters or
2) Topcount™ counter (PerkinElmer Life and Analytical Sciences) for 96-well filter plates. Specific binding is total binding minus non-specific binding.
For screening purposes n is set to 1. The IC50 value is calculated from the concentration response curves by the non-linear regression method using the curve-fitting program GraphPad Prism. […]

For the next series, the target named is T2, α5β2γ2 GABAA receptor (Homo sapiens, UniProt P18507+P31644).
T2 sequence (P31644 32-462): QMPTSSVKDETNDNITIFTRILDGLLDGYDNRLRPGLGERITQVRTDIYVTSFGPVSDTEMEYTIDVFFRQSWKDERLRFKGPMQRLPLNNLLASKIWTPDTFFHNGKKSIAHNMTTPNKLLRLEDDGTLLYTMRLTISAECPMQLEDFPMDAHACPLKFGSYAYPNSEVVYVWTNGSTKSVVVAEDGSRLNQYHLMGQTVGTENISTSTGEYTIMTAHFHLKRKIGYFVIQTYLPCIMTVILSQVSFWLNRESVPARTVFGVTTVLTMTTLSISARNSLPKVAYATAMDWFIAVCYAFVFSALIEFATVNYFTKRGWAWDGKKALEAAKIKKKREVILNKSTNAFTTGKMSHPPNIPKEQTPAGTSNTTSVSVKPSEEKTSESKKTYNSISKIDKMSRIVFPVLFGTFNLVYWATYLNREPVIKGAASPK
T2 sequence (P18507 40-376 limits assumed): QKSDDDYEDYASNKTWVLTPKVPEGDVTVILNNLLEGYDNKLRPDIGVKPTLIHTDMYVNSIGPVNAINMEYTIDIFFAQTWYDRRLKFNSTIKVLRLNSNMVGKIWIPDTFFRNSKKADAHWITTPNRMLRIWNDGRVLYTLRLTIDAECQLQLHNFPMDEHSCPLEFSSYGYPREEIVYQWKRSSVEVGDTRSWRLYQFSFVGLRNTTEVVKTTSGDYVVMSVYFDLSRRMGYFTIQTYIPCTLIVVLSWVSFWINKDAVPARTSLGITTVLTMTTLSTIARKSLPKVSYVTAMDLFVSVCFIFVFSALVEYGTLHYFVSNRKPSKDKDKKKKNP
The experiment in a line: Assay B: modulation of α5β2γ2 GABAA receptor, two-electrode voltage clamp in oocytes. It is filed as cell-based. Here is the method:
Assay B: In vitro evaluation of modulation of α5β2γ2 GABAA receptor.
Modulatory efficacy of compounds of formula (I) is determined electrophysiological recordings in oocytes using the two-electrode voltage clamp (TEVC) technique. Oocytes are injected with cRNA for human GABAA receptor subunits α5, β2 and γ2 in a 3:1:3 ratio and modulatory efficacy is evaluated by co-applications with a submaximal EC5-20 GABA concentration (0.5 μM) termed GABA control. As a standard, the compounds are tested in five concentrations (3.16, 0.316, 0.0316, 0.00316 and 0.000316 μM) on each oocyte starting with the lowest concentration. Background subtracted peak current amplitudes are normalized to the respective GABA control current, converted to % change and depicted +/−S.E.M. as a function of increasing compound concentrations. Plotted datapoints are fitted to the empirical Hill equation using non-linear regression. 95% confidence intervals for maximal efficacy (Bottom) and potency (Log EC50) are derived from this fitting routine.
On the technique in general: Two-electrode voltage clamp holds a large cell at a set potential and records current.

Series [2] is described as follows: Metabolic stability in human liver microsomes (Human MST). Type of series: in vitro ADME. The conditions noted are these: pooled human liver microsomes, pH 7.6; human liver microsomes 1 mg/mL, 1 μM compound, NADPH 1 mM, 37° C.; read-out: Human MST t1/2. As to the method:
Assessment of Metabolic Stability in Human Liver Microsomes (Human MST) The metabolic stability of the compounds according to the invention may be investigated as follows: The metabolic degradation of the test compound is assayed at 37° C. with pooled human liver microsomes. The final incubation volume of 100 μL per time point contains TRIS buffer pH 7.6 at room temperature (0.1 M), MgCl2 (5 mM), microsomal protein (1 mg/mL) and the test compound at a final concentration of 1 μM. Following a short pre-incubation period at 37° C., the reactions are initiated by addition of beta-nicotinamide adenine dinucleotide phosphate, reduced form (NADPH, 1 mM), and terminated by transferring an aliquot into solvent after different time points. After centrifugation (10000 g, 5 min), an aliquot of the supernatant is assayed by LCMS/MS for the amount of parent compound. The half-life (t½) is determined by the slope of the semi-logarithmic plot of the concentration-time profile.
On the technique in general: Liver microsomes are a subcellular fraction often used to study metabolism.

One may read the Ki as the equilibrium dissociation constant of an inhibitor or competing ligand from its target. Read a low Ki as higher affinity. Take `Cc1nnn(-c2ccc(C(F)F)cc2)c1COc1ccc(-n2cnc(C(=O)N(C)C)c2)nn1` [Example 16]: the Ki in series [1] was 0.16 nM. Also, the Assay B: GABAA α5β3γ2 Emax vs GABA on α5β2γ2 GABAA receptor worked out at 0%. Also, the half-life at 1 μM in series [2] is above 2.17 h.
